Source: patent publication US8921267B2, “Safening 6-(trisubstituted phenyl)-4-amino-2-pyridinecarboxylate herbicide injury on cereal crops” (Dow AgroSciences LLC, priority 2008, dated 2014)

Tests used:
[1] = system: bird's-eye speedwell (Veronica persica L; VERPE); test: Postemergence herbicidal activity, greenhouse, visual injury: bird's-eye speedwell; format: in vivo; design: key: visual injury, 0–100%: 0 = no injury, 100 = complete kill
Experimental: (§1) Evaluation of Postemergence Herbicidal Safening in Cereal Crops
(§2) Seeds of the desired test plant species were planted in Sun Gro MetroMix® 306 planting mixture, which typically has a pH of 6.0 to 6.8 and an organic matter content of about 30 percent, in plastic pots with a surface area of 103.2 square centimeters (cm^2). When required to ensure good germination and healthy plants, a fungicide treatment and/or other chemical or physical treatment was applied. The plants were grown for 7-36 days (d) in a greenhouse with an approximate 14-hour (h) photoperiod which was maintained at about 18° C. during the day and 17° C. during the night. Nutrients and water were added on a regular basis and supplemental lighting was provided with overhead metal halide 1000-Watt lamps as necessary. The plants were employed for testing when they reached the second or third true leaf stage.
(§3) Weighed amounts of esters (methyl) or salts (TEA [triethylammonium], K [potassium]) of 4-amino-3-chloro-6-(4-chloro-2-fluoro-3-methoxyphenyl)pyridine-2-carboxylic acid (Compound 1) were dissolved in a volume of 97:3 volume/volume (v/v) acetone/dimethylsulfoxide (DMSO) to obtain stock solutions. […] The concentrated stock solutions were diluted with an aqueous mixture of 1.5% v/v of Agri-dex crop oil concentrate to provide the appropriate application rates. Compound requirements are based upon a 12 mL application volume at a rate of 187 liters per hectare (L/ha). Stocks solutions of the safeners were prepared following the same procedure. Spray solutions of the safeners and experimental compound mixtures were prepared by adding the stock solutions to the appropriate amount of dilution solution to form a 12 mL spray solution with active ingredients in two-way combinations. Formulated compounds were applied to the plant material with an overhead Mandel track sprayer equipped with 8002E nozzles calibrated to deliver 187 L/ha over an application area of 0.503 square meters (m^2) at a spray height of 18 inches (43 centimeters (cm)) above average plant canopy. Control plants were sprayed in the same manner with the solvent blank.
(§4) The treated plants and control plants were placed in a greenhouse as described above and watered by sub-irrigation to prevent wash-off of the test compounds. After 20-22 d, the condition of the test plants as compared with that of the control plants was determined visually and scored on a scale of 0 to 100 percent where 0 corresponds to no injury and 100 corresponds to complete kill.
(§5) Colby's equation was used to determine the herbicidal effects expected from the mixtures (Colby, S. R. Calculation of the synergistic and antagonistic response of herbicide combinations. Weeds 1967, 15, 20-22.).
(§6) The following equation was used to calculate the expected activity of mixtures containing two active ingredients, A and B: Expected=A+B−(A×B/100)
(§7) A=observed efficacy of active ingredient A at the same concentration as used in the mixture.
(§8) B=observed efficacy of active ingredient B at the same concentration as used in the mixture.

[2] = system: wheat (Triticum aestivum L; TRZAS); test: Postemergence herbicidal safening, greenhouse, visual injury: wheat; format: in vivo
Experimental: as §1, §2, §3, §4, §5, §6, §7, §8

[3] = system: wild buckwheat (Polygonum convolvulus L; POLCO); test: Postemergence herbicidal activity, greenhouse, visual injury: wild buckwheat; format: in vivo
Experimental: as §1, §2, §3, §4, §5, §6, §7, §8

[4] = system: chickweed (Stellaria media L; STEME); test: Postemergence herbicidal activity, greenhouse, visual injury: chickweed; format: in vivo; design: key: visual injury, 0–100%: 0 = no injury, 100 = complete kill
Experimental: as §1, §2, §3, §4, §5, §6, §7, §8

[5] = system: purple deadnettle (Lamium purpureum L; LAMPU); test: Postemergence herbicidal activity, greenhouse, visual injury: purple deadnettle; format: in vivo; design: key: visual injury, 0–100%: 0 = no injury, 100 = complete kill
Experimental: as §1, §2, §3, §4, §5, §6, §7, §8

[6] = system: Russian thistle (Salsola iberica L; SASKR); test: Postemergence herbicidal activity, greenhouse, visual injury: Russian thistle; format: in vivo; design: key: visual injury, 0–100%: 0 = no injury, 100 = complete kill
Experimental: as §1, §2, §3, §4, §5, §6, §7, §8

[7] = system: cleavers (Galium aparine L; GALAP); test: Postemergence herbicidal activity, greenhouse, visual injury: cleavers; format: in vivo; design: key: visual injury, 0–100%: 0 = no injury, 100 = complete kill
Experimental: as §1, §2, §3, §4, §5, §6, §7, §8

barley (HORVW) = test: Postemergence herbicidal safening, greenhouse, visual injury: barley (HORVW)
[8] = system: wild pansy (Viola tricolor L; VIOTR); test: Postemergence herbicidal activity, greenhouse, visual injury: wild pansy; format: in vivo; design: key: visual injury, 0–100%: 0 = no injury, 100 = complete kill
Experimental: as §1, §2, §3, §4, §5, §6, §7, §8

[9] = system: corn poppy (Papaver rhoeas L; PAPRH); test: Postemergence herbicidal activity, greenhouse, visual injury: corn poppy; format: in vivo
Experimental: as §1, §2, §3, §4, §5, §6, §7, §8

[10] = system: barley (Hordeum vulgare L; HORVS); test: Postemergence herbicidal safening, greenhouse, visual injury: barley; format: in vivo
Experimental: as §1, §2, §3, §4, §5, §6, §7, §8

[11] = system: wheat (Triticum aestivum L; TRZAW); test: Postemergence herbicidal safening, greenhouse, visual injury: wheat (TRZAW); format: in vivo
Experimental: as §1, §2, §3, §4, §5, §6, §7, §8

[12] = system: durum wheat (Triticum durum L; TRZDU); test: Postemergence herbicidal safening, greenhouse, visual injury: durum wheat; format: in vivo
Experimental: as §1, §2, §3, §4, §5, §6, §7, §8

[13] = Compound 1 Methyl ester 35 g/ha alone

CC1(C)CN2C(=O)CCC2(C)N(C(=O)C(Cl)Cl)C1 (racemic) [Dicyclonon, (RS)-1-dichloroacetyl-3,3,8a-trimethylperhydropyrrolo[1,2]pyrimidin-6-one, reference compound]
VERPE Ob ([1]; applied alone at 17.5 g/ha): 0%
VERPE Ob ([1]; applied alone at 35 g/ha): 0%
VERPE Ob ([1]; applied alone at 70 g/ha): 0%
VERPE Ob ([1]; applied alone at 140 g/ha): 0%
TRZAS Ob ([2]; applied alone at 17.5 g/ha): 0%
TRZAS Ob ([2]; applied alone at 35 g/ha): 0%
TRZAS Ob ([2]; applied alone at 70 g/ha): 0%
TRZAS Ob ([2]; applied alone at 140 g/ha): 0%
POLCO Ob ([3]; applied alone at 17.5 g/ha): 0%
POLCO Ob ([3]; applied alone at 35 g/ha): 0%
POLCO Ob ([3]; applied alone at 70 g/ha): 0%
POLCO Ob ([3]; applied alone at 140 g/ha): 0%
STEME Ob ([4]; applied alone at 17.5 g/ha): 0%
STEME Ob ([4]; applied alone at 35 g/ha): 0%
STEME Ob ([4]; applied alone at 70 g/ha): 0%
STEME Ob ([4]; applied alone at 140 g/ha): 0%
LAMPU Ob (Observed values) ([5]; safener 4.4 g/ha alone): 0
LAMPU Ob (Observed values) ([5]; safener 8.8 g/ha alone): 0
LAMPU Ob (Observed values) ([5]; safener 17.5 g/ha alone): 0
LAMPU Ob (Observed values) ([5]; safener 35 g/ha alone): 0
SASKR Ob ([6]; applied alone at 17.5 g/ha): 0%
SASKR Ob ([6]; applied alone at 35 g/ha): 0%
SASKR Ob ([6]; applied alone at 70 g/ha): 0%
SASKR Ob ([6]; applied alone at 140 g/ha): 0%
GALAP Ob ([7]; applied alone at 17.5 g/ha): 0%
GALAP Ob ([7]; applied alone at 35 g/ha): 0%
GALAP Ob ([7]; applied alone at 70 g/ha): 0%
GALAP Ob ([7]; applied alone at 140 g/ha): 0%
HORVW Ob (Observed values) (barley (HORVW); safener 4.4 g/ha alone): 0%
HORVW Ob (Observed values) (barley (HORVW); safener 8.8 g/ha alone): 0%
HORVW Ob (Observed values) (barley (HORVW); safener 17.5 g/ha alone): 0%
HORVW Ob (Observed values) (barley (HORVW); safener 35 g/ha alone): 0%
VIOTR Ob ([8]; applied alone at 17.5 g/ha): 0%
VIOTR Ob ([8]; applied alone at 35 g/ha): 0%
VIOTR Ob ([8]; applied alone at 70 g/ha): 0%
VIOTR Ob ([8]; applied alone at 140 g/ha): 0%
PAPRH Ob ([9]; applied alone at 17.5 g/ha): 0%
PAPRH Ob ([9]; applied alone at 35 g/ha): 0%
PAPRH Ob ([9]; applied alone at 70 g/ha): 0%
PAPRH Ob ([9]; applied alone at 140 g/ha): 0%
PAPRH Ob (Observed values) ([9]; safener 4.4 g/ha alone): 0
PAPRH Ob (Observed values) ([9]; safener 8.8 g/ha alone): 0
PAPRH Ob (Observed values) ([9]; safener 17.5 g/ha alone): 0
PAPRH Ob (Observed values) ([9]; safener 35 g/ha alone): 0
HORVS Ob ([10]; applied alone at 17.5 g/ha): 0%
HORVS Ob ([10]; applied alone at 35 g/ha): 0%
HORVS Ob ([10]; applied alone at 70 g/ha): 0%
HORVS Ob ([10]; applied alone at 140 g/ha): 0%

COC(=O)c1nc(-c2ccc(Cl)c(OC)c2F)cc(N)c1Cl [1 Methyl ester]
TRZAS Ob (Observed values) [2, 13]: 50
TRZAW Ob (Observed values) [11, 13]: 35%
LAMPU Ob (Observed values) [5, 13]: 97
HORVW Ob (Observed values) (barley (HORVW); [13]): 50%
TRZDU Ob (Observed values) [12, 13]: 42%
PAPRH Ob (Observed values) [9, 13]: 97
HORVS Ob (Observed values) [10, 13]: 33

O=C(C(Cl)Cl)N1CCOC12CCCCC2 [AD-67]
TRZAW Ob (Observed values) ([11]; safener 4.4 g/ha alone): 0%
TRZAW Ob (Observed values) ([11]; safener 8.8 g/ha alone): 0%
TRZAW Ob (Observed values) ([11]; safener 17.5 g/ha alone): 0%
TRZAW Ob (Observed values) ([11]; safener 35 g/ha alone): 0%
LAMPU Ob (Observed values) ([5]; safener 4.4 g/ha alone): 0
LAMPU Ob (Observed values) ([5]; safener 8.8 g/ha alone): 0
LAMPU Ob (Observed values) ([5]; safener 17.5 g/ha alone): 0
LAMPU Ob (Observed values) ([5]; safener 35 g/ha alone): 0
HORVW Ob (Observed values) (barley (HORVW); safener 4.4 g/ha alone): 0%
HORVW Ob (Observed values) (barley (HORVW); safener 8.8 g/ha alone): 0%
HORVW Ob (Observed values) (barley (HORVW); safener 17.5 g/ha alone): 0%
HORVW Ob (Observed values) (barley (HORVW); safener 35 g/ha alone): 0%
TRZDU Ob (Observed values) ([12]; safener 4.4 g/ha alone): 0%
TRZDU Ob (Observed values) ([12]; safener 8.8 g/ha alone): 0%
TRZDU Ob (Observed values) ([12]; safener 17.5 g/ha alone): 0%
TRZDU Ob (Observed values) ([12]; safener 35 g/ha alone): 0%
PAPRH Ob (Observed values) ([9]; safener 4.4 g/ha alone): 0
PAPRH Ob (Observed values) ([9]; safener 8.8 g/ha alone): 0
PAPRH Ob (Observed values) ([9]; safener 17.5 g/ha alone): 0
PAPRH Ob (Observed values) ([9]; safener 35 g/ha alone): 0

O=C(O)C1=NOC(c2ccccc2)(c2ccccc2)C1 [Isoxadifen]
TRZAS Ob (Observed values) ([2]; safener 4.4 g/ha alone): 0
TRZAS Ob (Observed values) ([2]; safener 8.8 g/ha alone): 0
TRZAS Ob (Observed values) ([2]; safener 17.5 g/ha alone): 0
TRZAS Ob (Observed values) ([2]; safener 35 g/ha alone): 0
TRZAW Ob (Observed values) ([11]; safener 4.4 g/ha alone): 0%
TRZAW Ob (Observed values) ([11]; safener 8.8 g/ha alone): 0%
TRZAW Ob (Observed values) ([11]; safener 17.5 g/ha alone): 0%
TRZAW Ob (Observed values) ([11]; safener 35 g/ha alone): 0%
LAMPU Ob (Observed values) ([5]; safener 4.4 g/ha alone): 0
LAMPU Ob (Observed values) ([5]; safener 8.8 g/ha alone): 0
LAMPU Ob (Observed values) ([5]; safener 17.5 g/ha alone): 0
LAMPU Ob (Observed values) ([5]; safener 35 g/ha alone): 0
HORVW Ob (Observed values) (barley (HORVW); safener 4.4 g/ha alone): 0%
HORVW Ob (Observed values) (barley (HORVW); safener 8.8 g/ha alone): 0%
HORVW Ob (Observed values) (barley (HORVW); safener 17.5 g/ha alone): 0%
HORVW Ob (Observed values) (barley (HORVW); safener 35 g/ha alone): 0%
TRZDU Ob (Observed values) ([12]; safener 4.4 g/ha alone): 0%
TRZDU Ob (Observed values) ([12]; safener 8.8 g/ha alone): 0%
TRZDU Ob (Observed values) ([12]; safener 17.5 g/ha alone): 0%
TRZDU Ob (Observed values) ([12]; safener 35 g/ha alone): 0%
PAPRH Ob (Observed values) ([9]; safener 4.4 g/ha alone): 0
PAPRH Ob (Observed values) ([9]; safener 8.8 g/ha alone): 0
PAPRH Ob (Observed values) ([9]; safener 17.5 g/ha alone): 0
PAPRH Ob (Observed values) ([9]; safener 35 g/ha alone): 0
HORVS Ob (Observed values) ([10]; safener 4.4 g/ha alone): 0
HORVS Ob (Observed values) ([10]; safener 8.8 g/ha alone): 0
HORVS Ob (Observed values) ([10]; safener 17.5 g/ha alone): 0
HORVS Ob (Observed values) ([10]; safener 35 g/ha alone): 0
